{"source": "ChEMBL document CHEMBL3616388", "about": "“Discovery of novel nonpeptide allosteric inhibitors interrupting the interaction of CDK2/cyclin A3 by virtual screening and bioassays” (Bioorg Med Chem Lett, 2015)", "key": {"[1]": {"target": "T1, Cyclin-dependent kinase 2 (Homo sapiens, UniProt P24941)", "assay": "Binding affinity to N-terminal His-tagged recombinant human CDK2 (1 to 298 amino acid residues) expressed in Escherichia coli BL21 assessed as inhibition of interaction with cyclin A3 by measuring HHASPRK phosphorylation at 100 uM by ADP-Glo Max assay relative to control"}, "[2]": {"target": "T1, Cyclin-dependent kinase 2", "assay": "Binding affinity to N-terminal His-tagged recombinant human CDK2 (1 to 298 amino acid residues) expressed in Escherichia coli BL21 assessed as inhibition of interaction with cyclin A3 by measuring 250 uM HHASPRK phosphorylation by ADP-Glo Max assay in presence of 750 uM ATP"}, "[3]": {"system": "A549", "assay": "Cell cycle arrest in human A549 cells assessed as accumulation at G2/M phase at 25 uM after 72 hrs by propidium iodide staining-based flow cytometric analysis (reference value: 19.79%)", "type": "functional"}, "[4]": {"target": "T1, Cyclin-dependent kinase 2", "assay": "Binding affinity to N-terminal His-tagged recombinant human CDK2 (1 to 298 amino acid residues) expressed in Escherichia coli BL21 assessed as inhibition of interaction with cyclin A3 by measuring 250 uM HHASPRK phosphorylation by ADP-Glo Max assay in presence of 375 uM ATP"}, "[5]": {"target": "Cyclin-dependent kinase 2 (Homo sapiens, UniProt P24941, Y180A)", "assay": "Binding affinity to human CDK2 Y180A mutant expressed in Escherichia coli BL21 assessed as inhibition of interaction with cyclin A3 by measuring HHASPRK phosphorylation by ADP-Glo Max assay"}, "[6]": {"system": "A549", "assay": "Cell cycle arrest in human A549 cells assessed as accumulation at G0/G1 phase at 10 uM after 72 hrs by propidium iodide staining-based flow cytometric analysis (reference value: 68.68%)", "type": "functional"}, "[7]": {"system": "A549", "assay": "Cell cycle arrest in human A549 cells assessed as accumulation at G2/M phase at 200 uM after 72 hrs by propidium iodide staining-based flow cytometric analysis (reference value: 19.79%)", "type": "functional"}, "[8]": {"system": "A549", "assay": "Cell cycle arrest in human A549 cells assessed as accumulation at S phase at 200 uM after 72 hrs by propidium iodide staining-based flow cytometric analysis (reference value: 11.53%)", "type": "functional"}, "[9]": {"target": "T1, Cyclin-dependent kinase 2", "assay": "Binding affinity to GST-tagged recombinant human CDK2 (1 to 298 amino acid residues) expressed in Escherichia coli BL21 assessed as inhibition of interaction with His-tagged cyclin A3 preincubated overnight with GST-tagged protein followed by His-tagged cyclin A3 addition by GST pull down assay"}, "[10]": {"system": "A549", "assay": "Cell cycle arrest in human A549 cells assessed as accumulation at G0/G1 phase at 200 uM after 72 hrs by propidium iodide staining-based flow cytometric analysis (reference value: 68.68%)", "type": "functional"}, "[11]": {"system": "A549", "assay": "Cell cycle arrest in human A549 cells assessed as accumulation at S phase at 10 uM after 72 hrs by propidium iodide staining-based flow cytometric analysis (reference value: 11.53%)", "type": "functional"}, "[12]": {"system": "A549", "assay": "Cell cycle arrest in human A549 cells assessed as accumulation at G2/M phase at 50 uM after 72 hrs by propidium iodide staining-based flow cytometric analysis (reference value: 19.79%)", "type": "functional"}, "[13]": {"target": "T1, Cyclin-dependent kinase 2", "assay": "Binding affinity to N-terminal His-tagged recombinant human CDK2 (1 to 298 amino acid residues) expressed in Escherichia coli BL21 assessed as inhibition of interaction with cyclin A3 by measuring 250 uM HHASPRK phosphorylation by ADP-Glo Max assay in presence of 75 uM ATP"}, "[14]": {"system": "A549", "assay": "Cell cycle arrest in human A549 cells assessed as accumulation at G0/G1 phase at 50 uM after 72 hrs by propidium iodide staining-based flow cytometric analysis (reference value: 68.68%)", "type": "functional"}, "[15]": {"system": "MDA-MB-231", "assay": "Cytotoxicity against human MDA-MB-231 cells assessed as cell viability after 72 hrs by MTS assay", "type": "functional, cell-based"}, "[16]": {"target": "T1, Cyclin-dependent kinase 2", "assay": "Binding affinity to N-terminal His-tagged recombinant human CDK2 (1 to 298 amino acid residues) expressed in Escherichia coli BL21 assessed as inhibition of interaction with cyclin A3 by measuring 2.5 mM HHASPRK phosphorylation by ADP-Glo Max assay in presence of 75 uM ATP"}, "[17]": {"target": "Cyclin-dependent kinase 2 (Homo sapiens, UniProt P24941, R150A)", "assay": "Binding affinity to human CDK2 R150A mutant expressed in Escherichia coli BL21 assessed as inhibition of interaction with cyclin A3 by measuring HHASPRK phosphorylation by ADP-Glo Max assay"}, "[18]": {"target": "T1, Cyclin-dependent kinase 2", "assay": "Binding affinity to N-terminal His-tagged recombinant human CDK2 (1 to 298 amino acid residues) expressed in Escherichia coli BL21 assessed as inhibition of interaction with cyclin A3 by measuring 1.25 mM HHASPRK phosphorylation by ADP-Glo Max assay in presence of 75 uM ATP"}, "[19]": {"system": "A549", "assay": "Cell cycle arrest in human A549 cells assessed as accumulation at S phase at 25 uM after 72 hrs by propidium iodide staining-based flow cytometric analysis (reference value: 11.53%)", "type": "functional"}, "[20]": {"system": "A549", "assay": "Cell cycle arrest in human A549 cells assessed as accumulation at G0/G1 phase at 25 uM after 72 hrs by propidium iodide staining-based flow cytometric analysis (reference value: 68.68%)", "type": "functional"}, "[21]": {"system": "A549", "assay": "Cell cycle arrest in human A549 cells assessed as accumulation at G2/M phase at 10 uM after 72 hrs by propidium iodide staining-based flow cytometric analysis (reference value: 19.79%)", "type": "functional"}, "[22]": {"system": "HepG2", "assay": "Cytotoxicity against human HepG2 cells assessed as cell viability after 72 hrs by MTS assay", "type": "functional, cell-based"}, "[23]": {"system": "A549", "assay": "Cell cycle arrest in human A549 cells assessed as accumulation at S phase at 50 uM after 72 hrs by propidium iodide staining-based flow cytometric analysis (reference value: 11.53%)", "type": "functional"}, "[24]": {"system": "A549", "assay": "Cytotoxicity against human A549 cells assessed as cell viability after 72 hrs by MTS assay", "type": "functional, cell-based"}}}
{"smiles": "Cn1c(=O)[nH]c(=O)c2c1nc(N/N=C1/C(=O)Nc3ccccc31)n2CC(O)COc1ccccc1", "note": "(centres undefined)", "values": [{"measurement": "inhibition", "setting": "[1]", "value": "< 5", "unit": "%"}]}
{"smiles": "CN1C(=O)c2cccc3c(S(=O)(=O)NCCC(=O)O)ccc1c23", "values": [{"measurement": "inhibition", "setting": "[1]", "value": 5.54, "unit": "%"}]}
{"smiles": "OC(CN1CCN(CC(O)Cn2c3ccc(Br)cc3c3cc(Br)cc(Br)c32)CC1)Cn1c2ccccc2c2ccccc21", "note": "(centres undefined)", "values": [{"measurement": "inhibition", "setting": "[1]", "value": 31, "unit": "%"}]}
{"smiles": "CSc1ccc(/C=N/c2cc([N+](=O)[O-])ccc2O)cc1", "values": [{"measurement": "IC50", "setting": "[2]", "value": 55.1, "unit": "µM"}, {"measurement": "Activity", "setting": "[3]", "value": 12.83, "unit": "%"}, {"measurement": "IC50", "setting": "[4]", "value": 78.3, "unit": "µM"}, {"measurement": "IC50", "setting": "[5]", "value": 151, "unit": "µM"}, {"measurement": "Activity", "setting": "[6]", "value": 66.03, "unit": "%"}, {"measurement": "Activity", "setting": "[7]", "value": 15.2, "unit": "%"}, {"measurement": "Activity", "setting": "[8]", "value": 41.3, "unit": "%"}, {"measurement": "Activity", "setting": "[9]", "value": "Dose-dependent effect"}, {"measurement": "Activity", "setting": "[10]", "value": 43.49, "unit": "%"}, {"measurement": "Activity", "setting": "[11]", "value": 15.21, "unit": "%"}, {"measurement": "Activity", "setting": "[12]", "value": 12.99, "unit": "%"}, {"measurement": "IC50", "setting": "[13]", "value": 52.1, "unit": "µM"}, {"measurement": "Activity", "setting": "[14]", "value": 60.8, "unit": "%"}, {"measurement": "Activity", "setting": "[15]", "value": "Dose-dependent effect"}, {"measurement": "IC50", "setting": "[16]", "value": 69.8, "unit": "µM"}, {"measurement": "IC50", "setting": "[17]", "value": 885, "unit": "µM"}, {"measurement": "inhibition", "setting": "[1]", "value": 65.5, "unit": "%"}, {"measurement": "IC50", "setting": "[18]", "value": 58.1, "unit": "µM"}, {"measurement": "Activity", "setting": "[19]", "value": 21.91, "unit": "%"}, {"measurement": "Activity", "setting": "[20]", "value": 65.26, "unit": "%"}, {"measurement": "Activity", "setting": "[21]", "value": 18.76, "unit": "%"}, {"measurement": "Activity", "setting": "[22]", "value": "Dose-dependent effect"}, {"measurement": "Activity", "setting": "[23]", "value": 26.21, "unit": "%"}, {"measurement": "Activity", "setting": "[24]", "value": "Dose-dependent effect"}]}
{"smiles": "CCOc1cc(C(=O)Nc2ccc(S(=O)(=O)Nc3nc(C)cc(C)n3)cc2)cc(OCC)c1OCC", "values": [{"measurement": "IC50", "setting": "[13]", "value": 105, "unit": "µM"}, {"measurement": "inhibition", "setting": "[1]", "value": 62.3, "unit": "%"}]}
{"smiles": "Cc1[nH]c2ccccc2c1/C=N/c1ccccc1C(=O)O", "values": [{"measurement": "inhibition", "setting": "[1]", "value": "< 5", "unit": "%"}]}
{"smiles": "O=C(CSc1nc2ccc(NC(=O)CSCC(=O)Nc3ccc4ccccc4c3)cc2s1)NCCOc1ccccc1", "values": [{"measurement": "inhibition", "setting": "[1]", "value": "< 5", "unit": "%"}]}
{"smiles": "Cc1cc(C)nc(NS(=O)(=O)c2ccc(NC(=O)CCCCC(=O)Nc3ccc(S(=O)(=O)Nc4nc(C)cc(C)n4)cc3)cc2)n1", "values": [{"measurement": "inhibition", "setting": "[1]", "value": 38, "unit": "%"}]}
{"smiles": "COc1ccccc1OCCOc1ccccc1/C=c1\\sc2n(c1=O)C(c1ccccc1)C(C(=O)Nc1ccccc1)=C(C)N=2", "note": "(centres undefined)", "values": [{"measurement": "inhibition", "setting": "[1]", "value": "< 5", "unit": "%"}]}
{"smiles": "Cc1ccc(S(=O)(=O)Nc2ccc(C(=O)N3N=C(c4c(-c5ccccc5)c5cc(Br)ccc5[nH]c4=O)CC3c3ccccc3)cc2)cc1", "note": "(centres undefined)", "values": [{"measurement": "inhibition", "setting": "[1]", "value": "< 5", "unit": "%"}]}
{"smiles": "Cc1ccccc1C(=O)N(Cc1ccc(C(F)(F)F)cc1)c1ccc(CC(=O)NCc2ccc(F)cc2)cc1", "values": [{"measurement": "inhibition", "setting": "[1]", "value": 37.5, "unit": "%"}]}
{"smiles": "C/C(Cc1ccccc1)=N\\Nc1nnc2c(n1)[nH]c1ccccc12", "values": [{"measurement": "inhibition", "setting": "[1]", "value": 35.2, "unit": "%"}]}
{"smiles": "CCN(C(=O)CCNC(=O)Cn1cnc2ccccc2c1=O)c1cccc(C(F)(F)F)c1", "values": [{"measurement": "inhibition", "setting": "[1]", "value": 8.39, "unit": "%"}]}
{"smiles": "CCOC(=O)C(Cc1ccc(OC)c([N+](=O)[O-])c1)NC(=O)CCC(=O)Nc1ccc(S(N)(=O)=O)cc1", "note": "(centres undefined)", "values": [{"measurement": "inhibition", "setting": "[1]", "value": "< 5", "unit": "%"}]}
{"smiles": "CC(=O)C1=C(O)C(=O)N(CO)C1c1ccccc1", "note": "(centres undefined)", "values": [{"measurement": "inhibition", "setting": "[1]", "value": "< 5", "unit": "%"}]}
